Assay results as given in PMC5343402, “Gossypol has anti-cancer effects by dual-targeting MDM2 and VEGF in human breast cancer” (Breast Cancer Research : BCR, 2017).

Molecular target: T1, MDM2 (RING protein) (Homo sapiens, UniProt Q00987)
T1 construct: MDM2 RING protein
Assay: isothermal titration calorimetry (auto-iTC200, one-site fit)
Format: binding

T1 sequence (Q00987 whole entry): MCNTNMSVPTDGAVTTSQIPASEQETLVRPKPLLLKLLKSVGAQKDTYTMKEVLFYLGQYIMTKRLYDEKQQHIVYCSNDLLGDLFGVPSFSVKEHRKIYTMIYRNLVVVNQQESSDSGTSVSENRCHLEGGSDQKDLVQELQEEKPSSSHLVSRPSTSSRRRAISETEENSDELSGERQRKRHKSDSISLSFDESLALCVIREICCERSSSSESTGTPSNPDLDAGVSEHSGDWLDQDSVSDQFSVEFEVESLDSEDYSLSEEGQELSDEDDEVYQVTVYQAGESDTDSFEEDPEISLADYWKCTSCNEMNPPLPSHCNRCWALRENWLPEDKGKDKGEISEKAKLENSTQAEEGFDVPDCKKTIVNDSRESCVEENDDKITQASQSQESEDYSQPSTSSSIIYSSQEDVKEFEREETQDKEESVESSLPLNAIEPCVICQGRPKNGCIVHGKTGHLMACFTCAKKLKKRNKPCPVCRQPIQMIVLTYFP

Cc1cc2c(C(C)C)c(O)c(O)c(C=O)c2c(O)c1-c1c(C)cc2c(C(C)C)c(O)c(O)c(C=O)c2c1O [MX11, gossypol]
Kd: 5.21 µM
